Here are results for one molecule from article PMC9828337 (Angewandte Chemie (International Ed. in English), 2022).

In this assay the test system is CurKC-CurALP and CurKCkinase-CurKClyase. Nature of the assay: MST binding with or without an ATP analog. Set-up: species or system Thermomonospora curvata DSM43183. The conditions noted are these: three replicates.

For `Nc1ncnc2c1ncn2[C@@H]1O[C@H](COP(=O)(O)OP(=O)(O)OP(=O)(O)O)[C@@H](O)[C@H]1O` [ATP], the “effect on leader binding and lyase–kinase association” value is “little impact on the leader binding and lyase–kinase association”.
